Reference: US20250250292A1, “DELIVERY SYSTEM TO TARGET GRAM-NEGATIVE BACTERIA” (priority 2022, published 2025)
≈ marks a conversion by molar mass, not a printed value. Like-named read-outs stand apart in the source and are kept apart here.

Columns and labels:
Streptococcus pyogenes = experiment: Antibacterial in vitro activity (MIC); assay type: cell-based; conditions: isolate B0780, Clinical isolate
Protocol: (§1) These compounds were tested in an E. coli and Klebsiella strain to determine the change in OD600 as a function of concentration (FIG. 5, E. coli; FIG. 6, Klebsiella). The antibacterial activity of the compounds was further analyzed and activity was determine a variety of different bacterial strains.

Staphylococcus aureus = experiment: Antibacterial in vitro activity (MIC); assay type: cell-based
Protocol: as §1

Pseudomonas aeruginosa [1] = experiment: Antibacterial in vitro activity (MIC); assay type: cell-based
Protocol: as §1

Citrobacter freundii = experiment: Antibacterial in vitro activity (MIC); assay type: cell-based
Protocol: as §1

Acinetobacter baumannii [2] = experiment: Antibacterial in vitro activity (MIC); assay type: cell-based
Protocol: as §1

Enterococcus faecium = experiment: Antibacterial in vitro activity (MIC); assay type: cell-based; conditions: isolate D0459, Clinical isolate
Protocol: as §1

Salmonella typhimurium = experiment: Antibacterial in vitro activity (MIC); assay type: cell-based; conditions: Salmonella enterica, ATCC 13311 / TYPHIMURIUM; isolate D0109, ATCC13311
Protocol: as §1

Streptococcus pneumoniae = experiment: Antibacterial in vitro activity (MIC); assay type: cell-based
Protocol: as §1

Escherichia coli = experiment: Antibacterial in vitro activity (MIC); assay type: cell-based
Protocol: as §1

Streptococcus agalactiae = experiment: Antibacterial in vitro activity (MIC); assay type: cell-based; conditions: isolate B0790, Clinical isolate
Protocol: as §1

Klebsiella pneumoniae = experiment: Antibacterial in vitro activity (MIC); assay type: cell-based
Protocol: as §1

Haemophilus influenzae = experiment: Antibacterial in vitro activity (MIC); assay type: cell-based
Protocol: as §1

Proteus mirabilis = experiment: Antibacterial in vitro activity (MIC); assay type: cell-based
Protocol: as §1

Enterobacter cloacae = experiment: Antibacterial in vitro activity (MIC); assay type: cell-based
Protocol: as §1

Pseudomonas aeruginosa [3] = conditions: McCarthy, 2021; cited from earlier work
E. faecalis = conditions: McCarthy, 2021; cited from earlier work
Acinetobacter baumannii [4] = conditions: McCarthy, 2021; cited from earlier work
MRC5 fibroblast cells = experiment: Cel Titer Glo cytotoxicity in MRC5 cells; assay type: cell-based; conditions: Homo sapiens
Protocol: In order to facilitate development of the TPP containing antibiotics, a series of TPP linkers were prepared and tested for their toxicity in MRC5 cells. This library of linkers are shown below: The toxicity of these linkers in MRC5 cells after a 72 hour incubation.

[5] = system: Escherichia coli (BL21(DE3)); experiment: Resazurin blue (alamarBlue) bacterial cell viability assay, gram-negative model; assay type: cell-based
Protocol: (§2) To compare the efficacy of pleuromutilin and the pleuromulin-TPP^+ ester pro-drug (AP-8-159B) gram-negative and gram-positive pathogen model system were used. Thus, Escherichia coli (BL21(DE3) from New England Biolabs) was used as a model strain for gram-negative bacteria and clinical isolates of Staphylococcus aureus were used as the model system for gram-positive bacteria (NR-49120, NR-46413 obtained from BEI Resources). All strains were cultured at 37° C. overnight in Luria Bertani (LB) (BD 244610). For testing the drug sensitivity, bacteria were grown in RPMI medium containing 10% fetal bovine serum or human serum.
A resazurin blue assay (alamarBlue®) (Toté et al., 2009; Costa et al., 2021; Wannigama et al., 2019; Travnickova et al., 2019) was used to evaluate bacterial cell viability. Resazurin (7-hydroxy-10-oxidophenoxazin-10-ium-3-one, sodium) is a blue fluorogenic dye used as a redox indicator in cell viability and proliferation assays for bacteria, yeast, or mammalian cells. The resazurin assay protocol is based on the reduction of oxidized non-fluorescent blue resazurin to a red fluorescent dye (resorufin), where NADPH dehydrogenase, without being bound by theory, is probably responsible for the transference of electrons from NADPH+H^+ to resazurin (Costa et al., 2021). The amount of resorufin produced is directly proportional to the number of living cells. This simple fluorometric-based assay rapidly quantifies metabolically active bacterial cells. Two controls were added to the plate to confirm the correct response from the resazurin. The positive control used evaluated media alone without bacterial culture to confirm there was no change from blue to red. The negative control evaluated the bacteria culture alone without added compound to provide a 100% growth control (red). Thus, resazurin sodium salt (Sigma R7017) was added to pleuromutilin or pleuromutilin-TPP+ prodrug treated bacterial samples at a final concentration of 0.02% and incubated for 8 hours at 37° C. Changes in fluorescence were measured on the Biotek Synergy 2 plate reader after an 8-hour incubation at 37° C. using an excitation filter range of 530-570 nm and an emission filter range of 590-620 nm. An increase in fluorescence intensity corresponded to bacterial growth and was quantified by comparison with untreated bacterial control samples. The ratio of (TThreshold (untreated)/TThreshold (prodrug-treated)) (where T=time) was used to quantify the change in bacterial growth. To minimize inter-experimental variations, TThreshold values were corrected by subtracting untreated control cultures to reach minimum detectable fluorescence. At the end of the experiment, wells were visualized for changes in color from blue (inviable bacteria) to red (viable bacteria) and a picture was taken.

[6] = system: clinical isolates of Staphylococcus aureus (NR-49120, NR-46413); experiment: Resazurin blue (alamarBlue) bacterial cell viability assay, gram-positive model; assay type: cell-based; conditions: clinical strains of Staphylococcus aureus
Protocol: as §2
A resazurin blue assay (alamarBlue®) (Toté et al., 2009; Costa et al., 2021; Wannigama et al., 2019; Travnickova et al., 2019) was used to evaluate bacterial cell viability. Resazurin (7-hydroxy-10-oxidophenoxazin-10-ium-3-one, sodium) is a blue fluorogenic dye used as a redox indicator in cell viability and proliferation assays for bacteria, yeast, or mammalian cells. […] This simple fluorometric-based assay rapidly quantifies metabolically active bacterial cells. […] The positive control used evaluated media alone without bacterial culture to confirm there was no change from blue to red. The negative control evaluated the bacteria culture alone without added compound to provide a 100% growth control (red). […] Changes in fluorescence were measured on the Biotek Synergy 2 plate reader after an 8-hour incubation at 37° C. using an excitation filter range of 530-570 nm and an emission filter range of 590-620 nm. An increase in fluorescence intensity corresponded to bacterial growth and was quantified by comparison with untreated bacterial control samples. The ratio of (TThreshold (untreated)/TThreshold (prodrug-treated)) (where T=time) was used to quantify the change in bacterial growth. To minimize inter-experimental variations, TThreshold values were corrected by subtracting untreated control cultures to reach minimum detectable fluorescence. […]

[7] = ATCC49951, isolate B0009, ATCC 49951
[8] = isolate B0029, Clinical isolate
[9] = ATCC27853, isolate B0015, ATCC 27853
[10] = ATCC29511, isolate B0016, ATCC 29511
[11] = isolate B0367, Clinical isolate
[12] = isolate B0271, Clinical isolate
[13] = ATCC15473, isolate B0473, ATCC 15473
[14] = isolate B1062, Clinical isolate
[15] = isolate B0078, Clinical isolate
[16] = isolate B0415, Clinical isolate
[17] = ATCC25922, isolate B0001, ATCC 25922, read-out: MIC
[18] = isolate B0159, Efflux pump deficient (ΔtolC)
[19] = isolate B0429, Efflux pump deficient (ΔacrAB)
[20] = isolate B1098, Clinical isolate, read-out: MIC
[21] = isolate D0120, Clinical isolate, read-out: MIC
[22] = ATCC11228, isolate B0032, ATCC 11228
[23] = ATCC29519, isolate D0033, ATCC 29519
[24] = ATCC43816, isolate B0305, ATCC 43816
[25] = ATCC49247, isolate B0035, ATCC 49247
[26] = isolate B0126, Clinical isolate
[27] = Proteus mirabilis, isolate D1301, Clinical isolate, read-out: MIC
[28] = isolate D1300, Clinical isolate
[29] = isolate D1089, Clinical isolate
[30] = isolate D1090, Clinical isolate
[31] = Table 2, cytotoxicity in MRC5 fibroblast cells

Structure (SMILES) | MIC (Staphylococcus aureus; [7]) [µg/mL] | MIC (Staphylococcus aureus; [8]) [µg/mL] | MIC (Pseudomonas aeruginosa [1]; [9]) [µg/mL] | MIC (Pseudomonas aeruginosa [1]; [10]) [µg/mL] | MIC (Pseudomonas aeruginosa [1]; [11]) [µg/mL] | MIC (Citrobacter freundii; [12]) [µg/mL] | MIC (Citrobacter freundii; isolate B0286, AKH Vienna) [µg/mL] | MIC (Acinetobacter baumannii [2]; [13]) [µg/mL] | MIC (Acinetobacter baumannii [2]; [14]) [µg/mL] | MIC (Salmonella typhimurium) [µg/mL] | MIC (Streptococcus pneumoniae; [15]) [µg/mL] | MIC (Streptococcus pneumoniae; [16]) [µg/mL] | MIC (Escherichia coli; [17]) [µg/mL] | MIC (Escherichia coli; [18]) [µg/mL] | MIC (Escherichia coli; [19]) [µg/mL] | MIC (Escherichia coli; [20]) [µg/mL] | MIC (Escherichia coli; [21]) [µg/mL] | MIC (Klebsiella pneumoniae; [22]) [µg/mL] | MIC (Klebsiella pneumoniae; [23]) [µg/mL] | MIC (Klebsiella pneumoniae; [24]) [µg/mL] | further results
C[C@H]1c2cccc(O)c2C(=O)C2=C(O)[C@]3(O)C(=O)C(C(N)=O)=C(O)[C@@H](N(C)C)[C@@H]3[C@@H](O)[C@@H]21 [Doxycycline] | 0.12 (≈ 0.27 µM) | 8 (≈ 18 µM) | 16 (≈ 36 µM) | 32 (≈ 72 µM) | > 32 | 8 (≈ 18 µM) | 2 (≈ 4.5 µM) | 0.5 (≈ 1.13 µM) | ≤ 0.03 | 0.5 (≈ 1.13 µM) | 16 (≈ 36 µM) | 0.12 (≈ 0.27 µM) | 0.5 (≈ 1.13 µM) | 0.25 (≈ 0.563 µM) | 0.25 (≈ 0.563 µM) | 16 (≈ 36 µM) | 2 (≈ 4.5 µM) | 0.25 (≈ 0.563 µM) | 1 (≈ 2.25 µM) | 1 (≈ 2.25 µM) | MIC (Streptococcus pyogenes): 16 µg/mL (≈ 36 µM); MIC (Staphylococcus aureus; isolate B1325, Clinical isolates): 4 µg/mL (≈ 9 µM); MIC (Enterococcus faecium): 32 µg/mL (≈ 72 µM); MIC (Streptococcus agalactiae): 0.12 µg/mL (≈ 0.27 µM); MIC (Haemophilus influenzae; [25]): 0.12 µg/mL (≈ 0.27 µM); MIC (Haemophilus influenzae; [26]): 0.12 µg/mL (≈ 0.27 µM); MIC (Proteus mirabilis; [27]): 32 µg/mL (≈ 72 µM); MIC (Proteus mirabilis; [28]): 32 µg/mL (≈ 72 µM); MIC (Enterobacter cloacae; [29]): > 32 µg/mL; MIC (Enterobacter cloacae; [30]): 2 µg/mL (≈ 4.5 µM)
C=C[C@]1(C)C[C@@H](OC(=O)CS[C@@H]2CC[C@@H](N)C[C@H]2O)[C@]2(C)[C@H](C)CC[C@]3(CCC(=O)[C@H]32)[C@@H](C)[C@@H]1O [Lefamulin] |  |  |  |  |  |  |  |  |  |  |  |  |  |  |  |  |  |  |  |  | antibacterial activity (Pseudomonas aeruginosa [3]): lacks activity; antibacterial activity (E. faecalis): lacks activity; antibacterial activity (Acinetobacter baumannii [4]): lacks activity
CC(C)C[C@H](NC(=O)[C@H](Cc1ccccc1)NC(=O)c1cnccn1)B(O)O [PS-341, bortezomib] |  |  |  |  |  |  |  |  |  |  |  |  |  |  |  |  |  |  |  |  | IC50 (MRC5 fibroblast cells; Table 1, TPP+ linkers, MRC5 cells, 72-hour incubation): 7 nM; IC50 (MRC5 fibroblast cells; [31]): 0.3 nM
C=C[C@]1(C)C[C@@H](OC(=O)CO)[C@]2(C)[C@H](C)CC[C@]3(CCC(=O)[C@H]32)[C@@H](C)[C@@H]1O [Pleuromutilin] | 1 (≈ 2.64 µM) | 1 (≈ 2.64 µM) | > 128 | > 128 | > 128 | > 128 | > 128 | > 128 | > 128 | 128 (≈ 338 µM) | 4 (≈ 10.6 µM) | 1 (≈ 2.64 µM) | 128 (≈ 338 µM) | 0.5 (≈ 1.32 µM) | 32 (≈ 84.5 µM) | > 128 | > 128 | > 128 | > 128 | > 128 | cytotoxicity potency ([5]; E Coli BL21 (DE3)): 25 µg/mL; cytotoxic effect ([5]; E. coli BL21 (DE3)): much less cytotoxic; MIC (Escherichia coli; isolate B0158, AcrAB-TolC efflux pump WT, read-out: MIC): > 128 µg/mL; MIC (Haemophilus influenzae; [25]): 4 µg/mL (≈ 10.6 µM); MIC (Haemophilus influenzae; [26]): 1 µg/mL (≈ 2.64 µM); MIC (Proteus mirabilis; [27]): > 128 µg/mL; MIC (Proteus mirabilis; [28]): >128 µg/mL; MIC (Enterobacter cloacae; [29]): > 128 µg/mL; MIC (Enterobacter cloacae; [30]): > 128 µg/mL; IC50 (MRC5 fibroblast cells; [31]): > 90000 nM; cytotoxic effect [6]: potent cytotoxic agents
